Laboratory results taken from patent US8663660B2, “Polymerized micelles” (Les Laboratories Servier, priority 2008, dated 2014).
Values after ≈ are worked out from the molar mass of the structure shown.

Legend:
[1] = Critical micellar concentration; type: physicochemical
Experimental: “Self-assembly” of amphiphilic molecules is understood to be the spontaneous organisation, into spherical micelles, of amphiphilic molecules in aqueous media at a concentration greater than the critical micellar concentration or CMC.
The critical micellar concentration of the amphiphilic molecule II-4 as described hereinbefore was determined in experiments to be 0.082 mg/ml.

[2] = physchem; settings: for Molar level of inclusion: polymerised micelles at 10 mg/ml, 50° C. 12 hours, molar ratio medicament/(medicament + amphiphilic II-4) × 100; for Level of inclusion by weight: polymerised micelles of amphiphilic II-4 at 10 mg/ml, stirring at 50° C. for 12 hours, weight ratio medicament/(medicament + transporter) × 100; for Number of molecules per micelle: polymerised micelles, molar ratio medicament/amphiphilic II-4 × 100 amphiphilics per micelle
Experimental: At the end of the inclusion sequence, the solution is filtered in order to remove the excess of non-included active ingredient.
The level of inclusion of S39625 is determined by the reverse-phase HPLC method. This technique is based on the difference in the interaction of molecules between the mobile phase and the stationary phase. This difference affects the retention times for those molecules. For given HPLC conditions, the same molecule always has the same retention time. The reverse-phase HPLC conditions for determination of the level of inclusion of S39625 are an RP-18^c grafted silica column for the stationary phase and a gradient of water and of acetonitrile from 5% to 100% for the mobile phase. Detection of the S39625 at the column exit is carried out by a UV detector at a wavelength of 385 nm. A standard curve for S39625 in acetonitrile was produced by reverse HPLC.

[3] = Solubility of the active ingredient molecule in water; type: physicochemical; settings: free molecule, without micelles

| SMILES | Critical micellar concentration [1] [mg/mL] | solubility at 12 h ([2]; 50 °C, aqueous with cosolvent or surfactant or cyclodextrin, thermodynamic from solid) [µg/mL] | Molar level of inclusion [2] [%] | Level of inclusion by weight [2] [%] | Level of inclusion by weight ([2]; listed as paclitaxel) [%] | Number of molecules per micelle [2] | Solubility of the molecule in water [3] [µg/mL] | Solubility in water [2] [µg/mL] |
| --- | --- | --- | --- | --- | --- | --- | --- | --- |
| CCCC#CC#CCCC(=O)NCCCCC(C(=O)O)N(CC(=O)O)CC(=O)O (stereo not shown) [II-4] | 0.082 | – | – | – | – | – | – | – |
| CC(=O)O[C@H]1C(=O)[C@@]2(C)[C@H]([C@H](OC(=O)c3ccccc3)[C@]3(O)C[C@H](OC(=O)[C@H](O)[C@@H](NC(=O)c4ccccc4)c4ccccc4)C(C)=C1C3(C)C)[C@]1(OC(C)=O)CO[C@@H]1C[C@@H]2O [Paclitaxel, paclitaxel, reference compound] | – | 4550 (≈ 5.33 mM) | 25 | 31 | 33 | 33 | – | – |
| c1cc2ccc3cccc4ccc(c1)c2c34 [Pyrene, pyrene, reference compound] | – | – | 63 | 34 | – | 167 | – | – |
| CCC1(O)C(=O)Cc2c1cc1n(c2=O)Cc2c-1nc1cc3c(cc1c2C1CCC1)OCO3 (stereo not shown) [S 39625] | – | – | 56 | 48 | – | 125 | 0.09 | 9000 (≈ 20.9 mM) |
| CN(C)CC[C@H](CSc1ccccc1)Nc1ccc(S(=O)(=O)NC(=O)c2ccc3c(c2)CC[C@@H]2CN(Cc4ccccc4-c4ccc(Cl)cc4)CCN32)cc1[N+](=O)[O-] [S 44563] | – | – | 36 | 45 | – | 56 | 2.00 | 8300 (≈ 9.89 mM) |
